Assay results as given in ChEMBL document CHEMBL1136356, “Rational design of antimicrobial agents: antifungal activity of alk(en)yl dihydroxybenzoates and dihydroxyphenyl alkanoates” (Bioorg Med Chem Lett, 2003).
≈ marks a conversion by molar mass, not a printed value.

Experiments:
Saccharomyces cerevisiae [1] = assay: microbe, parasite or virus in culture; conditions: ATCC 7754
Description: (§1) Antifungal activity against Saccharomyces cerevisiae ATCC 7754

physchem = conditions: octanol/water
Description: Partition coefficient (logP)

Saccharomyces cerevisiae [2] = assay: microbe, parasite or virus in culture; conditions: ATCC 7754; remark: listed apart in the source
Description: as §1

## CCCOC(=O)c1ccc(O)c(O)c1
Saccharomyces cerevisiae [1]
  MFC: > 400 µg/mL
physchem
  logP: 1.9
Saccharomyces cerevisiae [2]
  MIC: > 400 µg/mL

## CCCCCCCCCOC(=O)c1ccc(O)c(O)c1 [NONYL 3,4-DIHYDROXYBENZOATE]
Saccharomyces cerevisiae [1]
  MFC: 1.25 µg/mL (≈ 4.46 µM)
physchem
  logP: 4.4
Saccharomyces cerevisiae [2]
  MIC: 6.25 µg/mL (≈ 22.3 µM)

## O=C(OCC1CCCCC1)c1ccc(O)c(O)c1
Saccharomyces cerevisiae [1]
  MFC: 50 µg/mL (≈ 200 µM)
physchem
  logP: 3.05
Saccharomyces cerevisiae [2]
  MIC: 50 µg/mL (≈ 200 µM)

## CCCCCCCCCCCCOC(=O)c1cc(O)cc(O)c1O
Saccharomyces cerevisiae [1]
  MFC: > 400 µg/mL
physchem
  logP: 5.25
Saccharomyces cerevisiae [2]
  MIC: > 400 µg/mL

## CCCCCCCOC(=O)c1ccc(O)c(O)c1 [HEPTYL 3,4-DIHYDROXYBENZOATE]
Saccharomyces cerevisiae [1]
  MFC: 12.5 µg/mL (≈ 49.5 µM)
physchem
  logP: 3.57
Saccharomyces cerevisiae [2]
  MIC: 12.5 µg/mL (≈ 49.5 µM)

## CC1(C)C2CCC1(C)C(OC(=O)c1ccc(O)c(O)c1)C2 (configuration not stated)
Saccharomyces cerevisiae [1]
  MFC: 50 µg/mL (≈ 172 µM)
physchem
  logP: 3.78
Saccharomyces cerevisiae [2]
  MIC: 50 µg/mL (≈ 172 µM)

## CCCCCCCCCCCOC(=O)c1ccc(O)c(O)c1
Saccharomyces cerevisiae [1]
  MFC: > 400 µg/mL
physchem
  logP: 5.24
Saccharomyces cerevisiae [2]
  MIC: > 400 µg/mL

## CCCCCCC(CC)OC(=O)c1ccc(O)c(O)c1 (configuration not stated)
Saccharomyces cerevisiae [1]
  MFC: 12.5 µg/mL (≈ 44.6 µM)
physchem
  logP: 4.37
Saccharomyces cerevisiae [2]
  MIC: 12.5 µg/mL (≈ 44.6 µM)

## CCCCCC/C=C\COC(=O)c1ccc(O)c(O)c1
Saccharomyces cerevisiae [1]
  MFC: 6.25 µg/mL (≈ 22.5 µM)
physchem
  logP: 4.22
Saccharomyces cerevisiae [2]
  MIC: 6.25 µg/mL (≈ 22.5 µM)

## CC1CCC(C(C)C)C(OC(=O)c2ccc(O)c(O)c2)C1 (configuration not stated)
Saccharomyces cerevisiae [1]
  MFC: 12.5 µg/mL (≈ 42.8 µM)
physchem
  logP: 4.1
Saccharomyces cerevisiae [2]
  MIC: 12.5 µg/mL (≈ 42.8 µM)

## CCCCOC(=O)c1ccc(O)c(O)c1
Saccharomyces cerevisiae [1]
  MFC: 400 µg/mL (≈ 1900 µM)
physchem
  logP: 2.32
Saccharomyces cerevisiae [2]
  MIC: 200 µg/mL (≈ 951 µM)

## CCCCCCCOC(=O)c1cc(O)cc(O)c1O
Saccharomyces cerevisiae [1]
  MFC: 200 µg/mL (≈ 745 µM)
physchem
  logP: 3.16
Saccharomyces cerevisiae [2]
  MIC: 200 µg/mL (≈ 745 µM)

## CCCCCCCCCCCCCOC(=O)c1cc(O)cc(O)c1O
Saccharomyces cerevisiae [1]
  MFC: > 400 µg/mL
physchem
  logP: 5.67
Saccharomyces cerevisiae [2]
  MIC: > 400 µg/mL

## CCCCCOC(=O)c1ccc(O)c(O)c1
Saccharomyces cerevisiae [1]
  MFC: 100 µg/mL (≈ 446 µM)
physchem
  logP: 2.73
Saccharomyces cerevisiae [2]
  MIC: 100 µg/mL (≈ 446 µM)

## CCCCCCCCCOC(=O)c1cc(O)cc(O)c1O
Saccharomyces cerevisiae [1]
  MFC: 25 µg/mL (≈ 84.4 µM)
physchem
  logP: 4
Saccharomyces cerevisiae [2]
  MIC: 25 µg/mL (≈ 84.4 µM)

## Clc1ccc(COC(Cn2ccnc2)c2ccc(Cl)cc2Cl)c(Cl)c1 (configuration not stated) [MICONAZOLE]
Saccharomyces cerevisiae [1]
  MFC: 50 µg/mL (≈ 120 µM)
Saccharomyces cerevisiae [2]
  MIC: 6.25 µg/mL (≈ 15 µM)

## CC(C)=CCC/C(C)=C/COC(=O)c1ccc(O)c(O)c1
Saccharomyces cerevisiae [1]
  MFC: 12.5 µg/mL (≈ 43.1 µM)
physchem
  logP: 3.84
Saccharomyces cerevisiae [2]
  MIC: 12.5 µg/mL (≈ 43.1 µM)

## CCCCCCOC(=O)c1ccc(O)c(O)c1 [HEXYL 3,4-DIHYDROXYBENZOATE]
Saccharomyces cerevisiae [1]
  MFC: 25 µg/mL (≈ 105 µM)
physchem
  logP: 3.15
Saccharomyces cerevisiae [2]
  MIC: 25 µg/mL (≈ 105 µM)

## CCCCCCCCCCOC(=O)c1cc(O)cc(O)c1O
Saccharomyces cerevisiae [1]
  MFC: 25 µg/mL (≈ 80.5 µM)
physchem
  logP: 4.42
Saccharomyces cerevisiae [2]
  MIC: 12.5 µg/mL (≈ 40.3 µM)

## CC(C)=CCC/C(C)=C\COC(=O)c1ccc(O)c(O)c1
Saccharomyces cerevisiae [1]
  MFC: 25 µg/mL (≈ 86.1 µM)
physchem
  logP: 3.84
Saccharomyces cerevisiae [2]
  MIC: 12.5 µg/mL (≈ 43.1 µM)

## CCCCCCCC(C)OC(=O)c1ccc(O)c(O)c1 (configuration not stated)
Saccharomyces cerevisiae [1]
  MFC: 25 µg/mL (≈ 89.2 µM)
physchem
  logP: 4.3
Saccharomyces cerevisiae [2]
  MIC: 25 µg/mL (≈ 89.2 µM)

## O=C(OC1CCC2CCCCC2C1)c1ccc(O)c(O)c1 (configuration not stated)
Saccharomyces cerevisiae [1]
  MFC: 25 µg/mL (≈ 86.1 µM)
physchem
  logP: 3.62
Saccharomyces cerevisiae [2]
  MIC: 25 µg/mL (≈ 86.1 µM)

## CCCCCCCCCCCOC(=O)c1cc(O)cc(O)c1O
Saccharomyces cerevisiae [1]
  MFC: 25 µg/mL (≈ 77.1 µM)
physchem
  logP: 4.83
Saccharomyces cerevisiae [2]
  MIC: 25 µg/mL (≈ 77.1 µM)

## CCCCCC/C=C/COC(=O)c1ccc(O)c(O)c1
Saccharomyces cerevisiae [1]
  MFC: 6.25 µg/mL (≈ 22.5 µM)
physchem
  logP: 4.22
Saccharomyces cerevisiae [2]
  MIC: 6.25 µg/mL (≈ 22.5 µM)

## CCCCCCCCOC(=O)c1cc(O)cc(O)c1O
Saccharomyces cerevisiae [1]
  MFC: 100 µg/mL (≈ 354 µM)
physchem
  logP: 3.58
Saccharomyces cerevisiae [2]
  MIC: 50 µg/mL (≈ 177 µM)

## CCCCCCCCOC(=O)c1ccc(O)c(O)c1 [OCTYL 3,4-DIHYDROXYBENZOATE]
Saccharomyces cerevisiae [1]
  MFC: 12.5 µg/mL (≈ 46.9 µM)
physchem
  logP: 3.99
Saccharomyces cerevisiae [2]
  MIC: 6.25 µg/mL (≈ 23.5 µM)
